Reference: US8569573B2 (priority 2007, dated 2013)

What was measured:
CYP1A1 and 1A2 = test: Ethoxyresorufin-O-deethylase (EROD) activity on cultured hepatocytes from humanized FRG mouse liver; assay type: cell-based, human; settings: humanized mouse liver cells, FIG. 6a
[1] = test system: human drug metabolism genes; test: Induction of mRNAs involved in drug metabolism in cultured hepatocytes from chimeric mice (real-time PCR)
Text: (§1) The basal expression and induction of human liver specific genes in chimeric mice was examined. […] Primers, obtained from Applied Biosystems, were specific for human CYP1A1 (Hs00153120_m1), CYP1A2 (Hs00167927_m1), CYP3A4 (Hs00430021_m1), CYP3A7 (Hs00426361_a1), CYP2B6 (Hs00167937_g1), CYP2D6 (Hs00164385_a1), Multidrug resistance associated protein MRP2 (Hs00166123_m1), Bile Salt export Pump BSEP, (Hs00184829_m1), CAR (Hs00231959_m1) Albumin (Hs00609411_m1), HNF4α (Hs00230853_m1), Cyclophillin (Hs99999904_m1) and mouse actin (Ma00607939_s1).
(§2) Cultures of isolated hepatocytes were established and exposed to prototypical inducers of the cytochrome P450 genes. […] In addition to the mRNA expression levels of human drug metabolism genes, the enzymatic activity of the human CYP1A and 3A family members were measured. Ethoxyresorufin-O-deethylase activity (EROD) is known to be mediated by CYP1A1 and 1A2 in human liver.

FRG mice = test: Maintenance of FRG mice with NTBC in drinking water and NTBC withdrawal; assay type: in vivo, mouse
Text: Several strains of immune-deficient Fah knockout mice were generated. Crossing the Fah mutation onto nude, nod/scid or Rag1^−/− backgrounds was unsuccessful. To generate an immunodeficient Fah^−/− mouse strain completely lacking T cells, B cells and NK cells, but without a DNA repair defect, Fah^−/−/Rag2^−/−/Il2rg^−/− (FRG) mice were generated. Male Fah^−/−129S4 mice (Grompe et al. Genes Dev. 7:2298-2307, 1993) were crossed with female Rag2^−/−/Il2rg^−/− mice (Taconic). All animals were maintained with drinking water containing 2-(2-nitro-4-trifluoro-methyl-benzoyl)-1,3 cyclohexanedione (NTBC) at a concentration of 1.6 mg/L (Grompe et al. Nat. Genet. 10:453-460, 1995). To confirm the genotypes of each animal, PCR-based genotyping was carried out on 200 ng genomic DNA isolated from toe tissue (Grompe et al. Genes Dev. 7:2298-2307, 1993; Traggiai et al. Science 304:104-107, 2004).

CYP3A4 = test: Conversion of testosterone to 6-beta-hydroxyltestosterone in cultured hepatocytes from humanized FRG mouse liver; settings: cultured hepatocytes from repopulated FRG livers, FIG. 6b
Text: as §1, §2

O=c1cc(-c2ccccc2)oc2ccc3ccccc3c12 [BNF, beta-naphthoflavone]
EROD activity after prior exposure to inducer (CYP1A1 and 1A2): specifically and robustly induced | pattern of genes induced ([1]; cultured hepatocytes from chimeric mice, FIG. 7): as expected from normal human cells

O=C1CCCC(=O)C1C(=O)c1ccc(C(F)(F)F)cc1[N+](=O)[O-] [NTBC, 2-(2-nitro-4-trifluoro-methyl-benzoyl)-1,3 cyclohexanedione]
time to death after NTBC withdrawal (FRG mice; FRG mice, gradual hepatocellular injury after withdrawal): 4-8 weeks | growth and fertility of FRG mice (FRG mice; NTBC continuously in drinking water, 1.6 mg/L): grew well and were fully fertile

CCC1(c2ccccc2)C(=O)NC(=O)NC1=O [PB, phenobarbital]
conversion of testosterone to 6-beta-hydroxyltestosterone after prior exposure to inducer (CYP3A4): specifically induced | induction of CYP3A4 mRNA ([1]; relative to non-induced cultures, FIG. 7b): even more striking than at the enzyme level
